Data from patent publication US20040044043A1, “Thiazolidinedione derivative and its use as antidiabetic” (priority 2000, published 2004).

Experiments:
[1] = Solid state stability of the drug substance (storage, HPLC assay); format: physicochemical; settings: 1 month
Experimental: The solid state stability of the drug substance was determined by storing approximately 1.0 g of the material in a glass bottle at a) 40° C./75% Relative Humidity (RH), open exposure, for 1 month and b) at 50° C., closed, for 1 month. The material was assayed by HPLC for final content and degradation products in both cases.

[2] = Solubility in water (visual, confirmed by HPLC assay of a saturated solution); format: physicochemical; settings: thermodynamic from solid
Experimental: The visual solubility was confirmed by an HPLC assay of a saturated solution. Solubility: >100 mg/ml.

In the case of CCS(=O)(=O)O.CN(CCOc1ccc(CC2SC(=O)NC2=O)cc1)c1ccccn1 (centres unmarked) [Ethanesulfonate, 5-[4-[2-(N-methyl-N-(2-pyridyl)amino)ethoxy]benzyl]thiazolidine-2,4-dione ethanesulfonate], the “Degradation (HPLC degradation products)” value ([1]; 40° C./75% RH, open exposure) is reported as “No significant degradation observed”, the “HPLC assay for final content” value ([1]; 40° C./75% RH, open exposure) is reported as 99 % initial and the “Degradation (HPLC degradation products)” value ([1]; 50° C., closed) is reported as “No significant degradation observed”. For the same molecule, the “HPLC assay for final content” value ([1]; 50° C., closed) was 100 % initial and the solubility [2] was > 100 mg/mL.
